Values after ≈ are worked out from the molar mass of the structure shown. Values joined by “and” are separate entries in the source; they are usually repeats but may differ in a detail not shown here. Identical values can stand only once. Like-named read-outs stand apart in the source and are kept apart here.
Legend:
Botrytis cinerea = assay: microbe, parasite or virus in culture; type: cell-based; details: read-out: growth inhibition
[1] = test system: root knot nematode (Meloidogyne incognita); details: in vivo
Alternaria solani = assay: microbe, parasite or virus in culture; type: cell-based; details: read-out: growth inhibition
several arthropods = details: in vivo
Fusarium graminearum = assay: microbe, parasite or virus in culture; type: cell-based; details: read-out: growth inhibition
C. elegans [2] = assay: C. elegans liquid (well) assay; type: in vivo; details: Caenorhabditis elegans, read-out: Well EC50
cucumber seedling = assay: Miniaturized greenhouse assay, phytotoxicity rating; details: 200 ppm
[3] = test system: Meloidogyne incognita J2 larvae; assay: Miniaturized greenhouse assay on cucumber seedlings, root gall rating; type: in vivo
tomato plants = details: in vivo
C. elegans [4] = assay: C. elegans agar (plate) assay; type: in vivo; details: Caenorhabditis elegans, read-out: Plate EC50
Sclerotinia sclerotiorum = assay: microbe, parasite or virus in culture; type: cell-based; details: read-out: growth inhibition
C. elegans (strain N2) = assay: C. elegans contact assay (NGM-agar, 24-well); type: in vivo; details: Caenorhabditis elegans, 96 h

Q: With `O=S(=O)(F)CCNc1ccc(N=Nc2ccccc2)cc1` [Compound 3746, 2-(4-phenylazo-phenylamino)-ethanesulfonyl fluoride] as the compound, how does the inhibition at 1.63 µM (Botrytis cinerea; 1.63 μM) read?
A: The inhibition at 1.63 µM was < 25%.

Q: What about the inhibition at 16.3 µM (Botrytis cinerea; 16.3 μM) of the same compound?
A: The inhibition at 16.3 µM was > 75%.

Q: What about the “nematode control (gall ratings)” value [1] of the same compound?
A: Its value is “nematode control approaching that of the commercial nematicides fenamiphos (Nemacur)”.

Q: And the inhibition at 1.63 µM (Alternaria solani; 1.63 μM)?
A: The inhibition at 1.63 µM was < 25%.

Q: What about the inhibition at 16.3 µM (Alternaria solani; 16.3 μM) of the same compound?
A: Its inhibition at 16.3 µM is > 75%.

Q: And the “Result (arthropod toxicity)” value (Corn ear worm; 2500 μM)?
A: Its value is “Non-effect”.

Q: What about the “Result (arthropod toxicity)” value (Corn ear worm; 25000 μM) of the same compound?
A: The value was “Lethal”.

Q: And the “Result (arthropod toxicity)” value (Beet army worm; 2500 μM)?
A: The value was “No effect”.

Q: What about the “Result (arthropod toxicity)” value (Beet army worm; 25000 μM) of the same compound?
A: Its value is “Lethal”.

Q: And the toxicity to arthropods (several arthropods)?
A: The toxicity to arthropods was “not toxic”.

Q: And the inhibition at 1.63 µM (Fusarium graminearum; 1.63 μM)?
A: The inhibition at 1.63 µM was < 25%.

Q: What about the inhibition at 16.3 µM (Fusarium graminearum; 16.3 μM) of the same compound?
A: Its inhibition at 16.3 µM is > 75%.

Q: What about the EC50 (C. elegans [2]) of the same compound?
A: Its EC50 is 6.3 to 12.5 µg/mL (≈ 20.5 to 40.7 µM).

Q: And the “Ptox 200 (phytotoxicity rating)” value (cucumber seedling)?
A: The value was 3.00 and 2.67.

Q: What about the “Gall 40 (gall rating)” value ([3]; 40 ppm) of the same compound?
A: The value was 1.33 and 2.00.

Q: What about the “Gall 200 (gall rating)” value ([3]; 200 ppm) of the same compound?
A: The value was 0.00.

Q: And the “phytotoxicity (root weights)” value (tomato plants)?
A: The value was “no phytoxicity”.

Q: And the EC50 (C. elegans [4])?
A: The EC50 was 1.6 µg/mL (≈ 5.21 µM).

Q: And the “toxicity to fungal species” value (various fungal species)?
A: The value was “Low to moderate toxicity”.

Q: And the inhibition at 16.3 µM (Sclerotinia sclerotiorum; 16.3 μM)?
A: The inhibition at 16.3 µM was < 25%.

Q: What about the inhibition at 163 µM (Sclerotinia sclerotiorum; 163 μM) of the same compound?
A: The inhibition at 163 µM was > 75%.

Q: And the EC50 (C. elegans (strain N2))?
A: Its EC50 is 2 µM.

From US20050203067A1, “Pesticidal compositions and methods” (priority 2003, published 2005)
